Converted amounts (≈) assume the structure as drawn. Read-outs that look alike come from different tables or passages of the source.
Legend:
Format in all cases: cell-based
S. aureus TASAKI = assay: MIC, S. aureus TASAKI; conditions: Staphylococcus aureus
Procedure: (§1) The minimum inhibition concentrations (MIC) of the compounds obtained by the present invention were measured according to the standard method of Japanese Chemotherapy Association.

S. aureus 209P JC-1 = assay: MIC, S. aureus 209P JC-1
Procedure: as §1

S. aureus ATCC25923 = assay: MIC, S. aureus ATCC25923; conditions: Staphylococcus aureus, ATCC25923
Procedure: as §1

S. aureus Smith = assay: MIC, S. aureus Smith
Procedure: as §1

S. epidermidis ATCC14990 = assay: MIC, S. epidermidis ATCC14990
Procedure: as §1

S. faecalis IFO3826 = assay: MIC, S. faecalis IFO3826
Procedure: as §1

B. subtilis ATCC6633 = assay: MIC, B. subtilis ATCC6633
Procedure: as §1

S. anatum 677-69 = assay: MIC, S. anatum 677-69
Procedure: as §1

S. newport 563 = assay: MIC, S. newport 563
Procedure: as §1

S. paratyphi A 144-12-93 = assay: MIC, S. paratyphi A 144-12-93
Procedure: as §1

S. paratyphi B = assay: MIC, S. paratyphi B
Procedure: as §1

S. paratyphi C 33-76 = assay: MIC, S. paratyphi C 33-76
Procedure: as §1

S. typhi 1099-77 = assay: MIC, S. typhi 1099-77
Procedure: as §1

S. typhimurium ATCC13311 = assay: MIC, S. typhimurium ATCC13311
Procedure: as §1

S. typhimurium IFO 12529 = assay: MIC, S. typhimurium IFO 12529
Procedure: as §1

S. boyadii CDC 2064-59 = assay: MIC, S. boyadii CDC 2064-59
Procedure: as §1

S. dysenteriae 4379-60 = assay: MIC, S. dysenteriae 4379-60
Procedure: as §1

[1] = tested on: S. flexneri 2a CDC 4807-62; assay: MIC, S. flexneri 2a CDC 4807-62
Procedure: as §1

S. flexneri Y NCTC 9730 = assay: MIC, S. flexneri Y NCTC 9730
Procedure: as §1

S. sonnei SH72-415 = assay: MIC, S. sonnei SH72-415
Procedure: as §1

E. coli ATCC25922 = assay: MIC, E. coli ATCC25922
Procedure: as §1

E. coli NIHJ JC-2 = assay: MIC, E. coli NIHJ JC-2
Procedure: as §1

C. freundii IFO12681 = assay: MIC, C. freundii IFO12681
Procedure: as §1

S. marcescens IFO12648 = assay: MIC, S. marcescens IFO12648
Procedure: as §1

E. cloacae ATCC13047 = assay: MIC, E. cloacae ATCC13047; conditions: Enterobacter cloacae
Procedure: as §1

K. pneumoniae ATCC27736 = assay: MIC, K. pneumoniae ATCC27736
Procedure: as §1

P. mirabilis IFO3849 = assay: MIC, P. mirabilis IFO3849
Procedure: as §1

P. rettgeri ATCC14505 = assay: MIC, P. rettgeri ATCC14505
Procedure: as §1

P. vulgaris ATCC6380 = assay: MIC, P. vulgaris ATCC6380
Procedure: as §1

P. vulgaris ATCC6398 = assay: MIC, P. vulgaris ATCC6398
Procedure: as §1

P. aeruginosa ATCC9721 = assay: MIC, P. aeruginosa ATCC9721; conditions: Pseudomonas aeruginosa, ATCC9721
Procedure: as §1

P. cepacia ATCC25416 = assay: MIC, P. cepacia ATCC25416
Procedure: as §1

P. maltophilia ATCC13637 = assay: MIC, P. maltophilia ATCC13637; conditions: Stenotrophomonas maltophilia
Procedure: as §1

P. putida ATCC12633 = assay: MIC, P. putida ATCC12633; conditions: Pseudomonas putida
Procedure: as §1

P. fluorescens ATCC13525 = assay: MIC, P. fluorescens ATCC13525
Procedure: as §1

[2] = Salmonella enterica, read-out: MIC
[3] = Proteus vulgaris, read-out: MIC

CO[C@@]1(NC(=O)C(C(=O)O)c2ccc(O)cc2)C(=O)N2C(C(=O)O)=C(CSc3nnnn3C)CO[C@@H]21 (some centres unmarked) [LMOX, latamoxiceph]
MIC (S. aureus TASAKI): 3.13 µg/mL (≈ 6.01 µM)
MIC (S. aureus 209P JC-1; Staphylococcus aureus, 209P): 3.13 µg/mL (≈ 6.01 µM)
MIC (S. aureus ATCC25923): 3.13 µg/mL (≈ 6.01 µM)
MIC (S. aureus Smith; Staphylococcus aureus, read-out: MIC): 6.25 µg/mL (≈ 12 µM)
MIC (S. epidermidis ATCC14990; Staphylococcus epidermidis, read-out: MIC): 6.25 µg/mL (≈ 12 µM)
MIC (S. faecalis IFO3826; Enterococcus faecalis, read-out: MIC): > 100 µg/mL
MIC (B. subtilis ATCC6633; Bacillus subtilis, ATCC6633): 3.13 µg/mL (≈ 6.01 µM)
MIC (S. anatum 677-69; Salmonella enterica, 67769, read-out: MIC): 0.1 µg/mL (≈ 0.192 µM)
MIC (S. newport 563; [2]): 0.1 µg/mL (≈ 0.192 µM)
MIC (S. paratyphi A 144-12-93; Salmonella enterica, PARATYPHI): 0.2 µg/mL (≈ 0.384 µM)
MIC (S. paratyphi B; Salmonella enterica, PARATYPHI): 0.05 µg/mL (≈ 0.0961 µM)
MIC (S. paratyphi C 33-76; Salmonella enterica, PARATYPHI): 0.025 µg/mL (≈ 0.048 µM)
MIC (S. typhi 1099-77; Salmonella enterica, TYPHI): 0.05 µg/mL (≈ 0.0961 µM)
MIC (S. typhimurium ATCC13311; [2]): 0.05 µg/mL (≈ 0.0961 µM)
MIC (S. typhimurium IFO 12529; [2]): 0.1 µg/mL (≈ 0.192 µM)
MIC (S. boyadii CDC 2064-59): 3.13 µg/mL (≈ 6.01 µM)
MIC (S. dysenteriae 4379-60; Shigella dysenteriae, 437960): 0.05 µg/mL (≈ 0.0961 µM)
MIC ([1]; Shigella flexneri, read-out: MIC): 0.1 µg/mL (≈ 0.192 µM)
MIC (S. flexneri Y NCTC 9730; Shigella flexneri, NCTC9730, read-out: MIC): 3.13 µg/mL (≈ 6.01 µM)
MIC (S. sonnei SH72-415; Shigella sonnei, SH72415, read-out: MIC): 0.1 µg/mL (≈ 0.192 µM)
MIC (E. coli ATCC25922; Escherichia coli, read-out: MIC): 0.2 µg/mL (≈ 0.384 µM)
MIC (E. coli NIHJ JC-2; Escherichia coli, NIHJJC2, read-out: MIC): 0.2 µg/mL (≈ 0.384 µM)
MIC (C. freundii IFO12681; Citrobacter freundii, read-out: MIC): 0.1 µg/mL (≈ 0.192 µM)
MIC (S. marcescens IFO12648; Serratia marcescens, read-out: MIC): 0.2 µg/mL (≈ 0.384 µM)
MIC (E. cloacae ATCC13047): 0.78 µg/mL (≈ 1.5 µM)
MIC (K. pneumoniae ATCC27736; Klebsiella pneumoniae, read-out: MIC): 0.05 µg/mL (≈ 0.0961 µM)
MIC (P. mirabilis IFO3849; Proteus mirabilis, read-out: MIC): 0.1 µg/mL (≈ 0.192 µM)
MIC (P. rettgeri ATCC14505; Providencia rettgeri, read-out: MIC): 0.1 µg/mL (≈ 0.192 µM)
MIC (P. vulgaris ATCC6380; [3]): 0.2 µg/mL (≈ 0.384 µM)
MIC (P. vulgaris ATCC6398; [3]): 0.2 µg/mL (≈ 0.384 µM)
MIC (P. aeruginosa ATCC9721): 3.13 µg/mL (≈ 6.01 µM)
MIC (P. cepacia ATCC25416; Burkholderia cepacia, read-out: MIC): 6.25 µg/mL (≈ 12 µM)
MIC (P. maltophilia ATCC13637): 25 µg/mL (≈ 48 µM)
MIC (P. putida ATCC12633): 25 µg/mL (≈ 48 µM)

cephazoline [CAZ]
MIC (S. aureus 209P JC-1; S. aureus 209P JC-1): 0.78 µg/mL
MIC (S. aureus Smith): 6.25 µg/mL
MIC (S. epidermidis ATCC14990): 6.25 µg/mL
MIC (S. faecalis IFO3826): > 100 µg/mL
MIC (B. subtilis ATCC6633; B. subtilis ATCC6633): 6.25 µg/mL
MIC (S. anatum 677-69): 0.78 µg/mL
MIC (S. newport 563): 0.78 µg/mL
MIC (S. paratyphi A 144-12-93; S. paratyphi A 144-12-93): 1.56 µg/mL
MIC (S. paratyphi B; S. paratyphi B): 0.78 µg/mL
MIC (S. paratyphi C 33-76; S. paratyphi C 33-76): 0.1 µg/mL
MIC (S. typhi 1099-77; S. typhi 1099-77): 0.39 µg/mL
MIC (S. typhimurium ATCC13311): 0.39 µg/mL
MIC (S. typhimurium IFO 12529): 0.78 µg/mL
MIC (S. dysenteriae 4379-60; S. dysenteriae 4379-60): 0.2 µg/mL
MIC [1]: 0.2 µg/mL
MIC (S. flexneri Y NCTC 9730): 0.39 µg/mL
MIC (S. sonnei SH72-415): 0.39 µg/mL
MIC (E. coli ATCC25922): 0.39 µg/mL
MIC (E. coli NIHJ JC-2): 0.78 µg/mL
MIC (C. freundii IFO12681): 0.39 µg/mL
MIC (S. marcescens IFO12648): 0.39 µg/mL
MIC (K. pneumoniae ATCC27736): 0.78 µg/mL
MIC (P. mirabilis IFO3849): 0.2 µg/mL
MIC (P. rettgeri ATCC14505): 0.39 µg/mL
MIC (P. vulgaris ATCC6380): 0.2 µg/mL
MIC (P. vulgaris ATCC6398): 0.1 µg/mL
MIC (P. cepacia ATCC25416): 6.25 µg/mL
MIC (P. fluorescens ATCC13525): 3.13 µg/mL

Reference: patent US4808711A, “Cephalosporin derivatives” (Sankei Pharmaceutical Co., Ltd., priority 1985, dated 1989)
